Assay results: article PMC4750701, “Role of Mitochondrial RNA Polymerase in the Toxicity of Nucleotide Inhibitors of Hepatitis C Virus” (Antimicrobial Agents and Chemotherapy, 2016)
Each block holds one compound with its values, some of them ahead of it.

Columns and labels:
[1] = Cytotoxicity in MT-4 T-cells, 5-day treatment; details: human, MT-4 cells
Description: Primary human hepatocytes were from Bioreclamation IVT (Westbury, NY) or Life Technologies (Carlsbad, CA).
(§4) All cells were cultured at 37°C in a 5% CO2 incubator with 90% humidity unless noted otherwise. […] All cells were treated with the various compounds for 5 days, except for human erythroid and myeloid progenitors, which were treated for 14 days. After the incubation period, cell viability was measured by the addition of CellTiter Glo viability reagents (Promega, Madison, WI). The luminescence signal was quantified on an Envision luminescence plate reader (PerkinElmer, Waltham, MA) after incubation of the reagents and cells for 10 min at room temperature. […] CC50 values were calculated as the average of the results of three or four independent experiments.

[2] = Cytotoxicity / ATP level in PC-3 cells, 5-day treatment; details: human, PC-3 cells
Description: as §4
Cell Culture and Cytotoxicity Studies
(§5) The Huh-7 cells were maintained in growth medium containing Dulbecco's Modified Eagle
(§6) Medium (DMEM, Cellgro) supplemented with 1% Nonessential Amino Acids (NEAA, Cellgro,
(§7) Manassas, VA), 10% fetal bovine serum (FBS, HyClone, Logan, UT) and 1% Penicillin-
(§8) streptomycin-glutamate (PSG, Invitrogen, Carlsbad, CA). The cells were passaged twice weekly
(§9) and maintained at 90% confluence densities.
(§10) The HepG2 cells were maintained in Eagle’s Minimum Essential Medium (EMEM) from ATCC
(§11) (Manassas, VA) supplemented with 10% FBS, 100 units/mL penicillin and 100 µg/mL
(§12) streptomycin (P/S) (Gibco). The cells were passaged twice weekly and maintained at 90%
(§13) The PC-3 cells were maintained in Kaighn’s F12 medium (Gibco, Carlsbad, CA) supplemented
(§14) with 10% FBS (HyClone, Logan, UT), 100 units/mL penicillin and 100 µg/mL streptomycin
(§15) (P/S) (Gibco). The cells were passaged twice weekly and maintained at 90% confluence. Cells
(§16) between passages 4 and 15 were used in the assays.
(§17) The fibroblast cell line MRC-5 cell line derived from normal lung tissue, was purchased from
(§18) ATCC (Manassas, VA) and cultured in Minimum Essential Medium (MEM) (Cellgro, Manassas,
(§19) VA) supplemented with 10% FBS (HyClone, Logan, UT) and 1% PSG (Invitrogen). The cells
(§20) were passaged twice weekly and maintained at 90% confluence densities.

[3] = Cytotoxicity in quiescent PBMCs, 5 days; details: human, quiescent PBMCs
[4] = Cytotoxicity in primary human hepatocytes, 5 days; details: human, primary human hepatocytes
[5] = Cytotoxicity in HepG2 (galactose) cells, 5-day treatment; details: human, HepG2 cells (galactose)
Description: as §4
Cell Culture and Cytotoxicity Studies
as §5, §6, §7, §8, §9, §10, §11, §12, §13, §14, §15, §16, §17, §18, §19, §20

[6] = system: mitochondrial DNA-encoded cytochrome c oxidase (COX-1); test: Mitochondrial protein synthesis assay (COX-1, MitoBiogenesis in-cell ELISA) in PC-3 cells; type: cell-based, human; details: PC-3 cells
Description: (§1) PC-3 cells were treated with the compounds for 5 days and analyzed with the MitoTox MitoBiogenesis in-cell enzyme-linked immunosorbent assay (ELISA) kit (MitoSciences/Abcam, Eugene, Oregon) as described previously ([13]). The assay uses quantitative immunocytochemistry to measure the protein levels of nuclear DNA-encoded succinate dehydrogenase (SDH-A; complex II [succinate dehydrogenase]) and mitochondrial DNA-encoded cytochrome c oxidase (COX-1; complex IV [cytochrome c oxidase]) in cultured cells.

[7] = system: mitochondrial DNA-encoded cytochrome c oxidase (COX-1; complex IV) protein level; test: as above; type: cell-based, human; details: human; PC-3 cells, COX-1, 5 days; read-out: Mean CC50 ± SD causing Mitochondrial toxicity: Protein synthesis
Description: as §1

[8] = Cytotoxicity in stimulated PBMCs, 5 days; details: human, stimulated PBMCs
[9] = Bone marrow myeloid progenitor colony assay, 14 days; type: cell-based, human; details: human, human bone marrow myeloid progenitors, read-out: Mean CC50 ± SD in Bone marrow cells Myeloid
[10] = Bone marrow erythroid progenitor colony assay, 14 days; type: cell-based, human; details: human, human bone marrow erythroid progenitors, read-out: Mean CC50 ± SD in Bone marrow cells Erythroid
[11] = system: mitochondrial spare respiratory capacity in PC-3 cells; test: Oxygen consumption rate / spare respiratory capacity in PC-3 cells; details: PC-3 cells, 3-day treatments
[12] = system: mitochondrial spare respiratory capacity; test: as above; details: human, pH 7.4
[13] = Cytotoxicity in MRC5 fibroblasts, 5-day treatment; details: human, MRC5 fibroblasts
[14] = system: nuclear DNA-encoded succinate dehydrogenase (SDH-A; complex II) protein level; test: Nuclear protein synthesis (SDH-A, MitoBiogenesis in-cell ELISA) in PC-3 cells; type: cell-based, human; details: human, read-out: Mean CC50 ± SD causing General cellular toxicity: Protein synthesis
Description: as §1

[15] = Cytotoxicity in Huh7 cells, 5-day treatment (CellTiter Glo); details: human, Huh-7 cells
Description: as §4
Cell Culture and Cytotoxicity Studies
as §5, §6, §7, §8, §9, §10, §11, §12, §13, §14, §15, §16, §17, §18, §19, §20

recombinant human PolRMT = biological target: T1, recombinant human PolRMT (Homo sapiens, UniProt O00411); test: Single-nucleotide incorporation by PolRMT; type: biochemical; details: triphosphate form, fixed saturating concentration 500 μM, rate relative to corresponding natural rNTP
T1 construct: purchased Enzymax (Lexington, KY)
T1 sequence (O00411 42-1230): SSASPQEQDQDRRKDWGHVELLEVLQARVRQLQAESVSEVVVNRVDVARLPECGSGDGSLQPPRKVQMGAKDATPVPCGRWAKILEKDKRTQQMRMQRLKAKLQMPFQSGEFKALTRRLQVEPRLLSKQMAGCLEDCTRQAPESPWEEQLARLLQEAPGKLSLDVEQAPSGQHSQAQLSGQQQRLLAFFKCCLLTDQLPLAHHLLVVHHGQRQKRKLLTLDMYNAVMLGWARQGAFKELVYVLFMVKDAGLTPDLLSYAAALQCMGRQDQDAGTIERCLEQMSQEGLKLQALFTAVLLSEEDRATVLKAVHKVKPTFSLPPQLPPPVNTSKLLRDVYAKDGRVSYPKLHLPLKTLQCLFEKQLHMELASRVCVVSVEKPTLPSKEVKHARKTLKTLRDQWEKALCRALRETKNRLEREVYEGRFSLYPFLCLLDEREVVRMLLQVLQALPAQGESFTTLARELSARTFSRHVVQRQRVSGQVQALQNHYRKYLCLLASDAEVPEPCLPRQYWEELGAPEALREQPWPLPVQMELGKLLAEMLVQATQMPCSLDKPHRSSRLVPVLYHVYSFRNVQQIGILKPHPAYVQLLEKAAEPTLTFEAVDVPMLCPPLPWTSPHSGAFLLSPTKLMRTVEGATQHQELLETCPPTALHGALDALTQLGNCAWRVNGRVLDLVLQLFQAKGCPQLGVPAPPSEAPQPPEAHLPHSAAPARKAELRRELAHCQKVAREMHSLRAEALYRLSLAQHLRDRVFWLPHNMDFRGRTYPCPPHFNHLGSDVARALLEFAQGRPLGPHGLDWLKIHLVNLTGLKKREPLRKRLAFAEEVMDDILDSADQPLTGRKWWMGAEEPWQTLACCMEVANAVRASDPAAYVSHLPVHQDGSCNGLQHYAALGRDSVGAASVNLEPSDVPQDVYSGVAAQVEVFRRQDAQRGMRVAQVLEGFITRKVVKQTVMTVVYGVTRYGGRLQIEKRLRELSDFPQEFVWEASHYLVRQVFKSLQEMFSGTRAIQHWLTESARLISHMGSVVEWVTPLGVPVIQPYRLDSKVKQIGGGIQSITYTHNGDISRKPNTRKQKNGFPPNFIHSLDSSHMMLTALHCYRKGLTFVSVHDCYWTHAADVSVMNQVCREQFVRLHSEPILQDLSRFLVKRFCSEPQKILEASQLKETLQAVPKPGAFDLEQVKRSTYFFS
Source text: (§2) Activated fish sperm DNA was purchased from USB/Affymetrix (Santa Clara, CA) and used as a template for the DNA polymerases alpha, beta, and gamma. The DNA template used in the RNA Pol II assay was a 1,188-bp restriction fragment containing the cytomegalovirus (CMV) immediate early promoter (Promega, Madison, WI). The RNA and DNA oligonucleotides used in the mitochondrial RNA polymerase assay (see Table S1 in the supplemental material) were synthesized and PAGE purified by Thermo Scientific/Dharmacon (Lafayette, CO). RNA primer R12 was 5′-^32P-phosphorylated with [γ-^32P]ATP (3,000 Ci/mmol) and T4 kinase (New England BioLabs, Ipswich, MA).
(§3) Human DNA polymerase alpha, isolated from HeLa cell extracts, was from CHIMERx (Madison, WI). Recombinant human DNA polymerase beta, expressed in E. coli, was a gift from Zucai Suo at The Ohio State University. Recombinant human DNA polymerase gamma (including both the large subunit and the small subunit) was cloned, expressed, and purified from insect cells by Gilead Sciences (Foster City, CA) ([13]). RNA PolII was purchased as part of the HeLaScribe nuclear extract in vitro transcription system kit from Promega (Madison, WI). The recombinant human PolRMT and the transcription factors mitochondrial transcription factor A (mtTFA) and B2 (mtTFB2) were purchased from Enzymax (Lexington, KY). FLAG epitope-tagged RNA PolI and PolIII complexes were isolated from rat NSN1 cells and HeLa cells, respectively ([17], [18]). The inhibition of DNA polymerases alpha, beta, and gamma, PolRMT, and PolII and the rate of single-nucleotide incorporation by PolRMT have been described previously in detail ([12], [13], [19]). Inhibition of RNA PolI and PolIII was studied using published methods ([20], [21]). All concentrations were final unless noted otherwise. For the RNA PolI inhibition assay, a reaction mixture containing 50 mM HEPES (pH 7.9), 20% glycerol, 100 mM KCl, 1 mM dithiothreitol (DTT), 50 μg/ml calf thymus DNA, 4 mM MgCl2, 5 or 80 μM UTP (0.25 μl of [5,6-^3H]UTP, >25 Ci/mmol; PerkinElmer), 1 mM noncompeting NTP, competing NTP (5 μM for GTP, CTP, and UTP and 25 μM for ATP), and various concentrations (0 to 500 μM) of NTP analogs was preincubated at 30°C for 5 min. […] After incubation at 30°C for 20 min to 1 h, the reactions were terminated by pipetting the mixtures onto DEAE-cellulose discs (DE81; Whatman), and the products analyzed as described previously ([20], [21]).
Supplementary Table S1: RNA primer and templates used in mitochondrial RNA
polymerase single nucleotide incorporation assay.
Oligonucleotides Sequencesa
Primer (R12) 5’-[…]-3’
Templates (D18) 3’-[…]-5’
a The bold letter in the template sequences denotes the bases that pair with the incoming NTP. […]

[16] = biological target: T2, Recombinant human DNA polymerase beta (Homo sapiens, UniProt P06746); test: Inhibition of human DNA polymerase beta; type: biochemical; details: triphosphate form of the compound tested; read-out: Mean IC50 ± SD for DNA Pol β
T2 construct: host or cells: E. coli
Source text: as §2, §3

[17] = biological target: T3, Recombinant human DNA polymerase gamma (Homo sapiens, UniProt P54098); test: Inhibition of human DNA polymerase gamma; type: biochemical; details: triphosphate form of the compound tested; read-out: Mean IC50 ± SD for DNA Pol γ
T3 construct: made in house; host or cells: insect cells
T3 sequence (P54098 1-1239): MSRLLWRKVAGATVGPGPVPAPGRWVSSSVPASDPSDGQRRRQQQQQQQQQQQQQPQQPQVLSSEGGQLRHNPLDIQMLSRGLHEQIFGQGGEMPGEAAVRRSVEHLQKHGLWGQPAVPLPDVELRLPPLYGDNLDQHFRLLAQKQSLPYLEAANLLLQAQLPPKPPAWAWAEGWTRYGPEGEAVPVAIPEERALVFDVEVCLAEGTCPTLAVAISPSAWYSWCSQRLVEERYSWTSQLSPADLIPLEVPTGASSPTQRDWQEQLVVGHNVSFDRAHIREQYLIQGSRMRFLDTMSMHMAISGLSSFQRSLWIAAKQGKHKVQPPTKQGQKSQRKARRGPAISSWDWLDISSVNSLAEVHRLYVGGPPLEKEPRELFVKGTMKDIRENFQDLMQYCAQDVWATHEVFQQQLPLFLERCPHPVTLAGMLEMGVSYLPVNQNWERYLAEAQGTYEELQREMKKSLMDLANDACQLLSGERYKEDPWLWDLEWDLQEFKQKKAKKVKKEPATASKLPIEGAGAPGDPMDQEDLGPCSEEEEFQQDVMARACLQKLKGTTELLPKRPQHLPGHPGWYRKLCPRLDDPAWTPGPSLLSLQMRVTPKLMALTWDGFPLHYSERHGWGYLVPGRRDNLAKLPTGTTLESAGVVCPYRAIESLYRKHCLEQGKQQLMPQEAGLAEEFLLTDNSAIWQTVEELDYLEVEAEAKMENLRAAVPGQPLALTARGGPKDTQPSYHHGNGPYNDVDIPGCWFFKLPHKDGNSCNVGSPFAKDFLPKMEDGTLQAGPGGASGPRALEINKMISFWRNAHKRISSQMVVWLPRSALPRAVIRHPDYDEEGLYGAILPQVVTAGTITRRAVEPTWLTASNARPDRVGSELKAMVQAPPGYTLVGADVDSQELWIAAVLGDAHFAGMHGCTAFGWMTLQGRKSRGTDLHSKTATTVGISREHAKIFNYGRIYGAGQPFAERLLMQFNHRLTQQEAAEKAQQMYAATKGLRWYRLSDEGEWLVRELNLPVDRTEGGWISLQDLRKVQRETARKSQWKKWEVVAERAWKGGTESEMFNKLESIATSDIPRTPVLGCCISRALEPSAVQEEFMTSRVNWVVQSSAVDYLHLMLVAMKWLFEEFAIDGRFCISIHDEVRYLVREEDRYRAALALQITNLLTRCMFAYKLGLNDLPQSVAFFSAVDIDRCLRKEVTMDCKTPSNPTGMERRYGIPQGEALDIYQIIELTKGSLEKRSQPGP
T3 sequence (Q9UHN1 26-485 partner limits assumed): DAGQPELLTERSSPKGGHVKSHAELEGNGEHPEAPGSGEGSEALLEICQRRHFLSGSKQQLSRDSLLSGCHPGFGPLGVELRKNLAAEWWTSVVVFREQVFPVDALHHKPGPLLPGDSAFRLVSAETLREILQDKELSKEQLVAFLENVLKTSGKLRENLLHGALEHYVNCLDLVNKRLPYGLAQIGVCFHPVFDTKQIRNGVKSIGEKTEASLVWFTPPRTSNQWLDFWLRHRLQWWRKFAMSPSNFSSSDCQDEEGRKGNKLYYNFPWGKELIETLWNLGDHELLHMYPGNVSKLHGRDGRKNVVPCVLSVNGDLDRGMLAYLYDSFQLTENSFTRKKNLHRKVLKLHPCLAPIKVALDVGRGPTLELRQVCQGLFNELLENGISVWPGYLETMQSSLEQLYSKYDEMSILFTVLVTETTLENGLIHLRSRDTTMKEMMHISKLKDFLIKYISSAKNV
Source text: as §2, §3

RNA PolIII = biological target: T4, RNA PolIII (Homo sapiens, UniProt O14802+Q9NW08); test: RNA PolIII inhibition assay; type: biochemical; details: competing NTP 100 μM CTP and GTP, 500 μM ATP; read-out: Mean IC50 ± SD for RNA PolIII
T4 construct: complexes were isolated from rat NSN1 cells and HeLa cells, respectively; made in house; host or cells: HeLa cells expressing a FLAG-tagged Pol III subunit
Source text: as §3
The RNA PolIII inhibition assay was conducted in a similar manner, except that the concentrations of the competing NTP were modified to 100 μM for CTP and GTP and 500 μM for ATP to compensate for the low assay signal at lower NTP concentrations.

RNA PolII = biological target: T5, RNA PolII (Homo sapiens, UniProt P24928+P30876); test: Inhibition of RNA PolII (HeLaScribe nuclear extract transcription); type: biochemical; details: nucleotide analogs (Table 6); read-out: Mean IC50 ± SD for RNA PolII
T5 construct: purchased as part of the HeLaScribe nuclear extract in vitro transcription system kit; purchased Promega (Madison, WI); host or cells: HeLa nuclear extract (endogenous enzyme)
Source text: as §2, §3

RNA PolI = biological target: T6, RNA PolI (Rattus norvegicus, UniProt O54889); test: RNA PolI inhibition assay; type: biochemical; details: NTP analogs 0 to 500 μM; read-out: Mean IC50 ± SD for RNA PolI
T6 construct: complexes were isolated from rat NSN1 cells and HeLa cells, respectively; made in house; host or cells: rat NSN1 cells expressing a FLAG-tagged Pol I subunit
T6 sequence (O54889 whole entry): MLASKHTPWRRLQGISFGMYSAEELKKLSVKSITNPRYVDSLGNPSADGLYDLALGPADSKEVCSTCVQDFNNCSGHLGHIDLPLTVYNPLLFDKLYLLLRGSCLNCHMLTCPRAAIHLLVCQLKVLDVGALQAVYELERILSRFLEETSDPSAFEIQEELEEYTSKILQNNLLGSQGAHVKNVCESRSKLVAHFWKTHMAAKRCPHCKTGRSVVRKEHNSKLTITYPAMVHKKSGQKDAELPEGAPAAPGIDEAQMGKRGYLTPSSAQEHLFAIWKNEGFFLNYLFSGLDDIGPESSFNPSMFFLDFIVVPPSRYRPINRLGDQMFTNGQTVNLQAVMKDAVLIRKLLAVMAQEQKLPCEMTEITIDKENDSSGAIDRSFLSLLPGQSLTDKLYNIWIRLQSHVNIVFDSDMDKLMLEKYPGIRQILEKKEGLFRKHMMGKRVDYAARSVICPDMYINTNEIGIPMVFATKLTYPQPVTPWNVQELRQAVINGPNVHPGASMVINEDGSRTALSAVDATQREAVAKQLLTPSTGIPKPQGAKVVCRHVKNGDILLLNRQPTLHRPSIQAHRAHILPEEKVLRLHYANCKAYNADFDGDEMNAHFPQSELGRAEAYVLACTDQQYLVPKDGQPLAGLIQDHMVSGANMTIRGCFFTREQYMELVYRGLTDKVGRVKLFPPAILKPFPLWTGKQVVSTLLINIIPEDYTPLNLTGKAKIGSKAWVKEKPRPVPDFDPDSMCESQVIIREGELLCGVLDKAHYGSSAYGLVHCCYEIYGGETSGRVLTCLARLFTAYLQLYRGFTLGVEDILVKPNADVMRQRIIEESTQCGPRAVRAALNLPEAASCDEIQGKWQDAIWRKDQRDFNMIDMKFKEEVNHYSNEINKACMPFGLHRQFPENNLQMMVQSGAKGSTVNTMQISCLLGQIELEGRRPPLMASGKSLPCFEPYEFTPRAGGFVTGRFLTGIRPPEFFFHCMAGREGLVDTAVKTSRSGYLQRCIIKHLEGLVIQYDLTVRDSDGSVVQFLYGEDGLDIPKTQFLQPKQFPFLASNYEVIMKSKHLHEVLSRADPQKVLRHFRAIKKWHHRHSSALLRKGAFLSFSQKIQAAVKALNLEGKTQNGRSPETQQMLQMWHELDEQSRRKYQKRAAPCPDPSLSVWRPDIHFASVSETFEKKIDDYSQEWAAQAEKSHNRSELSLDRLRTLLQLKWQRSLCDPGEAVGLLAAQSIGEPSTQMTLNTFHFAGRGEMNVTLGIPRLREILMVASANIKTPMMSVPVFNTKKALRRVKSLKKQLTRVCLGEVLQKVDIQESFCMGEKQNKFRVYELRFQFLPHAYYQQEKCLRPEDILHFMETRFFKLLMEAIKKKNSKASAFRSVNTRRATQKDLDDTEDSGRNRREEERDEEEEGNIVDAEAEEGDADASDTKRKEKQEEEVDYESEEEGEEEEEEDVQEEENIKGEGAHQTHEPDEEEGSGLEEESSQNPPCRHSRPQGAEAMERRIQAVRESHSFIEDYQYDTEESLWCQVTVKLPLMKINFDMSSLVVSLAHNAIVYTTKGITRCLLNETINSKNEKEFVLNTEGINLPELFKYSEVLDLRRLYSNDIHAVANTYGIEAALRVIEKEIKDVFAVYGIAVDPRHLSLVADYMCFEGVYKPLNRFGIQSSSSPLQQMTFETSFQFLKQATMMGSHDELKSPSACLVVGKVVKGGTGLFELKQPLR
Source text: as §3

Structure (SMILES): O=C(N[C@H](CO)[C@H](O)c1ccc([N+](=O)[O-])cc1)C(Cl)Cl [Chloramphenicol]
CC50 at 5 days [1]: > 89 µM
CC50 at 5 days [2]: 16 ± 3 µM
CC50 at 5 days [3]: > 100 µM
CC50 at 5 days [4]: > 100 µM
CC50 at 5 days [5]: > 89 µM
selectivity of effect on COX-1 versus SDH-A and ATP levels ([6]; 5-day treatments): specifically inhibited COX-1 synthesis
CC50 at 5 days [7]: 2.6 ± 0.6 µM
CC50 at 5 days [8]: > 100 µM
CC50 at 14 days [9]: > 100 µM
CC50 at 14 days [10]: 82 ± 29 µM
selectivity of effect on spare respiratory capacity versus DNA and ATP levels [11]: specifically inhibited mitochondrial spare respiratory capacity
CC50 at 3 days [12]: 4.5 ± 1.5 µM
CC50 at 5 days [13]: > 89 µM
CC50 at 5 days [14]: > 50 µM
CC50 at 5 days [15]: > 89 µM

Structure (SMILES): CC(C)C(=O)OC[C@H]1O[C@@H](n2ccc(N)nc2=O)[C@](C)(F)[C@@H]1OC(=O)C(C)C [mericitabine]
Substrate incorporation (% of NTP [mean ± SD]) of PolRMT (recombinant human PolRMT): < 1 % of NTP

Structure (SMILES): Cc1cn([C@H]2CC[C@@H](COP(=O)(O)OP(=O)(O)OP(=O)(O)O)O2)c(=O)[nH]c1=O [3′dTTP]
IC50 [16]: 1.9 ± 0.8 µM
IC50 [17]: 1.2 ± 0.6 µM

Structure (SMILES): C[C@@]1(O)[C@H](O)[C@@H](COP(=O)(O)OP(=O)(O)OP(=O)(O)O)O[C@H]1n1ccc(N)nc1=O [2′CMeCTP]
IC50 (RNA PolIII): > 500 µM
IC50 (RNA PolII): > 500 µM
IC50 (RNA PolI): 260 ± 40 µM

Continued, values first:

IC50 (RNA PolIII): > 500 µM
IC50 (RNA PolII): > 500 µM
IC50 (RNA PolI): 190 ± 40 µM
Structure (SMILES): C[C@@]1(O)[C@H](O)[C@@H](COP(=O)(O)OP(=O)(O)OP(=O)(O)O)O[C@H]1n1cnc2c(N)ncnc21 [2′CMeATP]

effect on mitochondrial or nuclear protein synthesis or ATP level ([6]; 5-day treatment, 10 μM): no appreciable effect
Structure (SMILES): NC(=O)c1ncn([C@@H]2O[C@H](CO)[C@@H](O)[C@H]2O)n1 [RBV, ribavirin]
